For the first assay, the target named is T1, EGFR L858R-T790M (Homo sapiens, UniProt P00533, L858R/T790M).
T1 construct: NCI-H1975 (harboring EGFR heterozygous L858R-T790M mutations); host or cells: NCI-H1975
T1 sequence (P00533 25-1210 T790M/L858R): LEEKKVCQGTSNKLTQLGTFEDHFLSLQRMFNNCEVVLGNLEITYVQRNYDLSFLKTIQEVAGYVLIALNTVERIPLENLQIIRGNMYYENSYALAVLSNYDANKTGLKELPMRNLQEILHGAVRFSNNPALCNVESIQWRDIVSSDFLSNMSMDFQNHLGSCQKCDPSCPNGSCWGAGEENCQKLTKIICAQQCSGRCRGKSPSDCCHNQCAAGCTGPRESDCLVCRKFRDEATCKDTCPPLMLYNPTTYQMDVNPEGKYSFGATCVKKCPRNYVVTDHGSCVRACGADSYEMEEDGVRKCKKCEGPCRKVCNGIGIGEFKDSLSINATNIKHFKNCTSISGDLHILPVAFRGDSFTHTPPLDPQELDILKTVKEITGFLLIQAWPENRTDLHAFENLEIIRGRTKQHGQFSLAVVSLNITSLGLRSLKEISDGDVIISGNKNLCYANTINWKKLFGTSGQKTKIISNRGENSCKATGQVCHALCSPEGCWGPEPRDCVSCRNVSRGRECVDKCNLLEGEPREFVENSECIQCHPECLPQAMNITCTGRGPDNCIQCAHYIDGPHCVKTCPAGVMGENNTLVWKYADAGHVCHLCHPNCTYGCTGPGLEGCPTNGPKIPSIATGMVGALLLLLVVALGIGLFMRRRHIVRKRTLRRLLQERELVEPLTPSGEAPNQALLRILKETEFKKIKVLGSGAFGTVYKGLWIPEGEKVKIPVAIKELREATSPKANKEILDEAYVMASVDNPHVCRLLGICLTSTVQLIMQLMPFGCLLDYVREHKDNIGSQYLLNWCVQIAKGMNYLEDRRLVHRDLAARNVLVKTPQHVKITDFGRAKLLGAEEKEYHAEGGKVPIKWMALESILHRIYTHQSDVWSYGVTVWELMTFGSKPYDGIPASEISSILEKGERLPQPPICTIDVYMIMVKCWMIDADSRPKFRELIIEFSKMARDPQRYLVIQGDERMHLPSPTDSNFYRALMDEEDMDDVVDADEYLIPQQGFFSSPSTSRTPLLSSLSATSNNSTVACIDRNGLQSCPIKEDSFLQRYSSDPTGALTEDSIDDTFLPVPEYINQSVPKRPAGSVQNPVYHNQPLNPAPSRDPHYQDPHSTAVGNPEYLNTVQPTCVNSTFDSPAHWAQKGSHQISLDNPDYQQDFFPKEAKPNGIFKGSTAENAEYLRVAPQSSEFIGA
Kind of assay: EGFR degradation, Total EGFR (L858R-specific) HTRF, NCI-H1975. The class given is cell-based. The following applies: Table 9A; NCI-H1975 cells, 6 hours, Total EGFR HTRF; read-out: H1975 EGFR DC50. The text has this: NCI-H1975 (harboring EGFR heterozygous L858R-T790M mutations) and NCI-H3255 (harboring EGFR heterozygous L858R mutation) were purchased from ATCC and NCI, respectively. NCI-H1975+CS (harboring EGFR heterozygous L858R-T790M-C797S mutations) was generated using CRISPR technology to introduce the additional C797S mutation by Horizon Discovery. A431 (harboring EGFR wildtype) was purchased from ATCC. RPMI 1640 no-phenol red medium and fetal bovine serum (FBS) were purchased from Gibco (Grand Island, NY, USA). Cell culture flasks and 384-well microplates were acquired from VWR (Radnor, PA, USA). Phosphorylated (pY1068) EGFR and Total EGFR (using L858R-specific detection antibody and pan-EGFR antibody for EGFR mutant cell lines and EGFR wild-type cell lines, respectively) HTRF assay kits were purchased from Cisbio (Bedford, MA, USA).
Degradation of EGFR protein containing L858R mutation or wild-type was determined based on quantification of FRET signal using a Total EGFR (L858R-specific or pan-EGFR detecting) HTRF assay kit. Phospho-EGFR (pEGFR) inhibition was determined based on quantification of FRET signal using a pY1068 EGFR HTRF assay kit. In separate assay plates, test compounds were added to the 384-well plate from a top concentration of 10 μM with 11 points, half log titration in duplicates. For each assay, 12.5 uL of cells suspended in assay media (RPMI 1640 no-phenol red medium+10% FBS) at cell densities indicated for each cell line in Table 8 below were dispensed using a multi-channel pipette to 384-well low volume white HTRF microplates containing a duplicate concentration range of test compounds and DMSO controls. The plates were kept at 37° C. with 5% CO2 for 6 hours and then incubated with either phospho EGFR or Total EGFR HTRF detection antibodies according to the cell line and EGFR mutant being assayed. Cells treated in the absence of the test compound were the negative control. Positive control was set by wells containing all reagents but no cells. FRET signal was acquired on EnVision™ Multilabel Reader (PerkinElmer, Santa Clara, CA, USA). Compound concentration that achieves 50% degradation and inhibition was reported as DC50 and IC50, respectively.
A general note: In TR-FRET formats the signal depends on donor and acceptor labels being close together.
With `O=C1CCC(Nc2ccc(C3CCN(CC(=O)N4CCN(c5ccc(-c6cc(F)c7c(c6)C(=O)N(C(C(=O)Nc6nccs6)c6ncn8c6CCC8)C7)cc5)CC4)CC3)cc2F)C(=O)N1` (centres unmarked) [Compound 13, 2-(6,7-dihydro-5H-pyrrolo[1,2-c]imidazol-1-yl)-2-[6-[4-[4-[2-[4-[4-[(2,6-dioxo-3-piperidyl)amino]-3-fluoro-phenyl]-1-piperidyl]acetyl]piperazin-1-yl]phenyl]-4-fluoro-1-oxo-isoindolin-2-yl]-N-thiazol-2-yl-acetamide], the DC50 was in the range of 50 to 150 nM.
On to `O=C1CCC(Nc2cccc(C3CCN(CC(=O)N4CCN(c5ccc(-c6cc(F)c7c(c6)C(=O)N(C(C(=O)Nc6nccs6)c6ncn8c6CCC8)C7)cc5)CC4)CC3)c2)C(=O)N1` (centres unmarked) [Compound 16, 2-(6,7-dihydro-5H-pyrrolo[1,2-c]imidazol-1-yl)-2-(6-(4-(4-(2-(4-(3-((2,6-dioxopiperidin-3-yl)amino)phenyl)piperidin-1-yl)acetyl)piperazin-1-yl)phenyl)-4-fluoro-1-oxoisoindolin-2-yl)-N-(thiazol-2-yl)acetamide], for which the DC50 lay within 50 to 150 nM.
For the compound `O=C1CCC(Nc2ccc(N3CCC(O)(CC(=O)N4CCN(c5ccc(-c6cc(F)c7c(c6)C(=O)N(C(C(=O)Nc6nccs6)c6ncn8c6CCC8)C7)cc5)CC4)CC3)c(C(F)(F)F)c2)C(=O)N1` (centres unmarked) [Compound 18, 2-(6,7-dihydro-5H-pyrrolo[1,2-c]imidazol-1-yl)-2-(6-(4-(4-(2-(1-(4-((2,6-dioxopiperidin-3-yl)amino)-2-(trifluoromethyl)phenyl)-4-hydroxypiperidin-4-yl)acetyl)piperazin-1-yl)phenyl)-4-fluoro-1-oxoisoindolin-2-yl)-N-(thiazol-2-yl)acetamide], the DC50 is below 50 nM.
Same read-out and setting: the result for `O=C1CC[C@@H](Nc2ccc(C3CCN(CC(=O)N4CCC(c5ccc(-c6cc(F)c7c(c6)C(=O)N(C(C(=O)Nc6nccs6)c6ncn8c6CCC8)C7)cc5)CC4)CC3)cc2)C(=O)N1` (stereo partly drawn) [Compound 23, 2-(6,7-dihydro-5H-pyrrolo[1,2-c]imidazol-1-yl)-2-(6-(4-(1-(2-(4-(4-(((R)-2,6-dioxopiperidin-3-yl)amino)phenyl)piperidin-1-yl)acetyl)piperidin-4-yl)phenyl)-4-fluoro-1-oxoisoindolin-2-yl)-N-(thiazol-2-yl)acetamide] reads below 50 nM; that for `O=C1CCC(Nc2ccc(C3CCN(C(=O)CN4CCC(c5ccc(-c6cc(F)c7c(c6)C(=O)N(C(C(=O)Nc6nccs6)c6ncn8c6CCC8)C7)cc5)CC4)CC3)cc2)C(=O)N1` (centres unmarked) [Compound 26, 2-(6,7-dihydro-5H-pyrrolo[1,2-c]imidazol-1-yl)-2-[6-[4-[1-[2-[4-[4-[(2,6-dioxo-3-piperidyl)amino]phenyl]-1-piperidyl]-2-oxo-ethyl]-4-piperidyl]phenyl]-4-fluoro-1-oxo-isoindolin-2-yl]-N-thiazol-2-yl-acetamide], below 50 nM.
`O=C1CCC(Nc2ccc(C3CCN(CC(=O)N4CCC(Oc5ccc(-c6cc(F)c7c(c6)C(=O)N(C(C(=O)Nc6nccs6)c6ncn8c6CCC8)C7)cc5)CC4)CC3)cc2)C(=O)N1` (centres unmarked) [Compound 31, 2-(6,7-dihydro-5H-pyrrolo[1,2-c]imidazol-1-yl)-2-[6-[4-[[1-[2-[4-[4-[(2,6-dioxo-3-piperidyl)amino]phenyl]-1-piperidyl]acetyl]-4-piperidyl]oxy]phenyl]-4-fluoro-1-oxo-isoindolin-2-yl]-N-thiazol-2-yl-acetamide]: the DC50 is below 50 nM.
On the same count and under the same terms, the result for `O=C1CCC(Nc2ccc(C3CCN(CC(=O)N4CCC(Oc5ccc(-c6cc(F)c7c(c6)C(=O)N(C(C(=O)Nc6nccs6)c6ncn8c6CCC8)C7)cc5)CC4)CC3)nc2)C(=O)N1` (centres unmarked) [Compound 36, 2-(6,7-dihydro-5H-pyrrolo[1,2-c]imidazol-1-yl)-2-(6-(4-((1-(2-(4-(5-((2,6-dioxopiperidin-3-yl)amino)pyridin-2-yl)piperidin-1-yl)acetyl)piperidin-4-yl)oxy)phenyl)-4-fluoro-1-oxoisoindolin-2-yl)-N-(thiazol-2-yl)acetamide] reads below 50 nM; that for `O=C1NC(=O)C2(Nc3ccc(C4CCN(CC(=O)N5CCC(Oc6ccc(-c7cc(F)c8c(c7)C(=O)N(C(C(=O)Nc7nccs7)c7ncn9c7CCC9)C8)cc6)CC5)CC4)cc3)CC1C2` (centres unmarked) [Compound 38, 2-(6,7-dihydro-5H-pyrrolo[1,2-c]imidazol-1-yl)-2-(6-(4-((1-(2-(4-(4-((2,4-dioxo-3-azabicyclo[3.1.1]heptan-1-yl)amino)phenyl)piperidin-1-yl)acetyl)piperidin-4-yl)oxy)phenyl)-4-fluoro-1-oxoisoindolin-2-yl)-N-(thiazol-2-yl)acetamide], 50 to 150 nM; that for `O=C1CC[C@H](Nc2ccc(C3CCN(CC(=O)N4CCC(Oc5ccc(-c6cc(F)c7c(c6)C(=O)N(C(C(=O)Nc6nccs6)c6ncn8c6CCC8)C7)cc5)CC4)CC3)c(F)c2)C(=O)N1` (stereo partly drawn) [Compound 39, 2-(6,7-dihydro-5H-pyrrolo[1,2-c]imidazol-1-yl)-2-(6-(4-((1-(2-(4-(4-(((S)-2,6-dioxopiperidin-3-yl)amino)-2-fluorophenyl)piperidin-1-yl)acetyl)piperidin-4-yl)oxy)phenyl)-4-fluoro-1-oxoisoindolin-2-yl)-N-(thiazol-2-yl)acetamide], 50 to 150 nM.
Same read-out and setting: the result for `O=C1CC[C@H](Nc2ccc(C3CCN(CC(=O)N4CC[C@@H](Oc5ccc(-c6cc(F)c7c(c6)C(=O)N(C(C(=O)Nc6nccs6)c6ncn8c6CCC8)C7)cc5)C4)CC3)cc2)C(=O)N1` (stereo partly drawn) [Compound 41, 2-(6,7-dihydro-5H-pyrrolo[1,2-c]imidazol-1-yl)-2-[6-[4-[(3R)-1-[2-[4-[4-[[(3S)-2,6-dioxo-3-piperidyl]amino]phenyl]-1-piperidyl]acetyl]pyrrolidin-3-yl]oxyphenyl]-4-fluoro-1-oxo-isoindolin-2-yl]-N-thiazol-2-yl-acetamide] reads below 50 nM; that for `O=C1CC[C@H](Nc2ccc(C3CCN(CC(=O)N4CC[C@H](Oc5ccc(-c6cc(F)c7c(c6)C(=O)N(C(C(=O)Nc6nccs6)c6ncn8c6CCC8)C7)cc5)C4)CC3)cc2)C(=O)N1` (stereo partly drawn) [Compound 42, 2-(6,7-dihydro-5H-pyrrolo[1,2-c]imidazol-1-yl)-2-[6-[4-[(3S)-1-[2-[4-[4-[[(3S)-2,6-dioxo-3-piperidyl]amino]phenyl]-1-piperidyl]acetyl]pyrrolidin-3-yl]oxyphenyl]-4-fluoro-1-oxo-isoindolin-2-yl]-N-thiazol-2-yl-acetamide], below 50 nM; that for `O=C1CCC(Oc2ccc(N3CCN(CC(=O)N4CCC(NC(=O)c5ccc(C#Cc6cc(F)c7c(c6)C(=O)N(C(C(=O)Nc6nccs6)c6ncn8c6CCC8)C7)cn5)CC4)CC3)cc2)C(=O)N1` (centres unmarked) [Compound 51, 5-[2-[2-[1-(6,7-dihydro-5H-pyrrolo[1,2-c]imidazol-1-yl)-2-oxo-2-(thiazol-2-ylamino)ethyl]-7-fluoro-3-oxo-isoindolin-5-yl]ethynyl]-N-[1-[2-[4-[4-[(2,6-dioxo-3-piperidyl)oxy]phenyl]piperazin-1-yl]acetyl]-4-piperidyl]pyridine-2-carboxamide], below 50 nM.

Staying with this assay, now noted: Table 9B; NCI-H1975 cells, 6 hours, Total EGFR HTRF; read-out: H1975 EGFR DC50.
In the case of `O=C1CCC(Nc2ccc(N3CCCC(O)(CC(=O)N4CC5(C4)CN(c4ccc(-c6cc(F)c7c(c6)C(=O)N(C(C(=O)Nc6nccs6)c6ncn8c6CCC8)C7)cc4)C5)CC3)c(F)c2)C(=O)N1` (single isomer, unassigned; isomer b1) [Compound 166, 2-(6,7-dihydro-5H-pyrrolo[1,2-c]imidazol-1-yl)-2-[6-[4-[2-[2-[1-[4-[[2,6-dioxo-3-piperidyl]amino]-2-fluoro-phenyl]-4-hydroxy-azepan-4-yl]acetyl]-2,6-diazaspiro[3.3]heptan-6-yl]phenyl]-4-fluoro-1-oxo-isoindolin-2-yl]-N-thiazol-2-yl-acetamide, isomer B1], the DC50 lay in the range of 50 to 150 nM.
The same measure, in the same setting: next, `O=C1CCC(Nc2ccc(N3CCCC(O)(CC(=O)N4CC5(C4)CN(c4ccc(-c6cc(F)c7c(c6)C(=O)N(C(C(=O)Nc6nccs6)c6ncn8c6CCC8)C7)cc4)C5)CC3)c(F)c2)C(=O)N1` (single isomer, unassigned; isomer b2) [Compound 167, 2-(6,7-dihydro-5H-pyrrolo[1,2-c]imidazol-1-yl)-2-[6-[4-[2-[2-[1-[4-[[2,6-dioxo-3-piperidyl]amino]-2-fluoro-phenyl]-4-hydroxy-azepan-4-yl]acetyl]-2,6-diazaspiro[3.3]heptan-6-yl]phenyl]-4-fluoro-1-oxo-isoindolin-2-yl]-N-thiazol-2-yl-acetamide, isomer B2]: 50 to 150 nM.

For orientation: DC50 means the concentration at which degradation of the target reaches its halfway point.

These data come from patent publication US20240158418A1 (C4 Therapeutics, Inc., priority 2021, published 2024).
